Reference: patent US8304439B1, “Use of quaternary pyridinium salts as a therapeutic or preventing agent against ionizing radiation-induced damage” (priority 2007, dated 2012)

Experiments:
[1] = tested on: mice irradiated with lethal dose of about 7.5 Gy; assay: Survival rate of mice after whole body irradiation, MNA given before irradiation (Example 1); type: in vivo; settings: whole body irradiation 7.5 Gy; 300 mg/kg per day in drinking water from the 7th day preceding irradiation, continued after; untreated group approximately 20%; FIG. 1
Experimental: (§1) The survival rate of irradiated mice treated with the compounds in comparison control was used as a measure of a radioprotective effect.
The methodology used was as described by Cheda et al., Radiation Research 2004, 161, 335 (animals and irradiation).
The survival rate of mice irradiated with lethal dose of about 7.5 Gy was tested. The treatment group received 1-methylnicotinamide chloride (MNA) in drinking water at an average dose of 300 mg/kg per day every day starting from the 7th day preceding the irradiation day. The administration was continued after irradiation. The control group received no treatment.

[2] = tested on: male BALB/c mice, whole body irradiation 7.5 Gy; assay: Survival of mice during 30 days following whole body gamma irradiation, compounds given before or after irradiation (Example 2); type: in vivo; settings: 7.5 Gy whole body, from day 7 before or day 7 after irradiation until day 30
Source text: as §1
The methodology followed was as described in B Hou. Z. W. Xu, C. W. Yang, Y. Gao, S. F. Zhao, C. G. Zhang: Protective effects of inosine on mice subjected to lethal total-body ionizing irradiation. J Radiat Res 48, 57-62, 2007. In brief, six-to-eight-week old male BALB/c mice obtained from the Nofer Institute of Occupational Medicine, ? ódź, Poland were used for the experiments. Whole bodies of the animals were exposed to a single irradiation (at the Military Institute of Chemistry and Radiometry) with gamma rays from the ^60Co source at 7.2 Gy/h mean dose rate to obtain the absorbed dose of 7.5 Gy per mouse. The absorbed doses were verified using thermoluminescent dosimeters implanted subcutaneously in the middle abdominal region. All the mice were maintained under specific pathogen-free conditions. Survival of the mice was assessed during 30 days following the irradiation.
The mice were divided into irradiated control group receiving no treatment, irradiated treatment group receiving MNA, irradiated treatment group receiving DMP, and irradiated treatment group receiving MAP. Each of the treatment groups was divided into two subgroups, the first group in which the animals received the tested compounds starting from day 7 before the irradiation, and the second group in which the animals received the tested compounds starting from day 7 after the irradiation.
The compounds were given dissolved in drinking water at 100 mg/kg of body weight/24 h (DMP and MAP) and 500 mg/kg of body weight (MNA)/24 h until day 30 post irradiation.

murine leukemia L1210 = settings: cited from earlier work; for cytotoxicity in cultured leukemia cells: comparison among the three salts
[3] = 100 mg/kg/24 h in drinking water, FIG. 3, FIG. 4

C[n+]1cccc(C(N)=O)c1 [MNA, 1-methylnicotinamide chloride]
survival rate of mice [1]: about 50% | protective activity (survival of mice) ([2]; 500 mg/kg/24 h in drinking water, FIG. 2): exert their protective activity both when administered prior irradiation and when administered after irradiation | concentration at which activity was observed (murine leukemia L1210; L1210 cells): observed only at very high concentration | cytotoxicity in cultured leukemia cells (murine leukemia L1210): several thousands times lower

CC(=O)c1ccc[n+](C)c1.[Cl-] [MAP, 1-methyl-3-acetylpyridinium chloride]
protective activity (survival of mice) [2, 3]: exert their protective activity both when administered prior irradiation and when administered after irradiation | cytotoxicity in cultured leukemia cells (murine leukemia L1210): several thousands times lower

Cc1cc[n+](C)cc1.[Cl-] [DMP, 1,4-dimethylpyridinium chloride]
protective activity (survival of mice) [2, 3]: exert their protective activity both when administered prior irradiation and when administered after irradiation

C[n+]1cccc([N+](=O)[O-])c1.[Cl-] [3-nitro-1-methylpyridinium chloride, 1-methyl-3-nitropyridinium chloride, reference compound]
cytotoxicity in cultured leukemia cells (murine leukemia L1210): highest cytotoxicity
